Like-named read-outs stand apart in the source and are kept apart here.
Columns and labels:
[1] = system: SCC-25 squamous cell skin cancer cell line; test: MTS cell viability after pretreatment and oxidative stress, SCC skin cancer cells; assay type: cell-based, human; settings: for sensitizing skin cancer cells to killing by TBHP: other NSAIDs at comparable active concentrations, compared to sulindac; for cancer killing effect of epimers, SCC cells: 500 μM 24 hours, then TBHP 2 hours (FIG. 24); for enhancing the killing of skin cancer cells (SCC-25) when exposed to TBHP: 24 hr pretreatment with 500 μM sulindac sulfone, 500 μM SMO or 50 μM sulindac sulfide, TBHP 2 hr (FIG. 14)
Experimental: (§1) SCC-25 is a human squamous cell carcinoma cell line developed by J G Rheinwald [Rheinwald, 1981]. […] The cells were maintained in minimum essential medium (Eagle) supplemented with 2 mM L-glutamine, Earle's BSS containing 1.5 g/L sodium bicarbonate, 0.1 mM non-essential amino acids, 1.0 mM sodium pyruvate and 10% fetal bovine serum.
The experimental approach was to pretreat SCC cells with sulindac for 24 hr prior to exposure to TBHP for 2 hr. Sulindac (Sigma; S-8139) was freshly prepared as a 1M stock solution in 1M Tris.Cl, pH 8.0. SCC cells were suspended in culture medium containing 10% fetal bovine serum at a cell density of 6×10^5 cells/ml. Cell suspensions containing 500 μM sulindac or no sulindac (Control) were plated in 96 well microtiter plates with a total of 6×10^4 cells per well. The plates were incubated for 24 hr at 37° C. in a 5% CO2 incubator. The culture medium was then removed and the cells washed once with fresh culture medium without serum. After removal of the wash solution, fresh culture medium without serum that contained the indicated final concentration of TBHP was added to the cells for 2 hrs. Serum was omitted from the medium during the two-hour exposure to TBHP since TBHP may be rapidly depleted in the presence of serum.

[2] = system: RKO colon cancer cell line; test: MTS cell viability after pretreatment and oxidative stress, RKO colon cancer cells; assay type: cell-based, human; settings: other NSAIDs at comparable active concentrations, compared to sulindac
Experimental: as §1, with “RKO” for “SCC-25”, “colon” for “squamous cell”, “Michael Brattain [Brattain, 1984].” for “J G Rheinwald [Rheinwald, 1981].”
Experiments were performed with the RKO colon cancer cells that were pretreated with 500 μM sulindac using TBHP.

Normal lung cells = test: Conversion of sulindac epimers to sulindac sulfide in whole cells, normal lung; assay type: in vitro ADME; settings: 200 μM epimer, 4 hours; for Amount Formed (sulindac sulfide): serum-free medium
Experimental: (§2) After the incubations, the cells were pelleted by low speed centrifugation and lysed by the addition of 200 μl of 100% acetonitrile, followed by vigorous vortexing. The lysate was centrifuged for 15 minutes at 14,000×g to pellet cell debris. 50 μl of the supernatant was transferred to an HPLC autosampler microvial. The separation of metabolites is carried out on a 4.6×75 mm C18 reverse-phase column. […] The metabolites are detected at a wavelength of 330 nm.
(§3) The cells are incubated with 200 μM R- or S-Sulindac epimer for 4 hours in a defined, serum-free medium (EX-CELL^SM). After incubation, the cells are collected, rinsed and lysed with acetonitrile. The cytosolic contents are separated on a C-18 column.

[3] = system: Cancer Skin (skin SCC) cells; settings: 200 μM epimer, 4 hours, serum-free medium
Experimental: as §2, §3

HeLa cancer cells = settings: 200 μM epimer, 4 hours, serum-free medium
Experimental: as §2, §3

Cancer Lung cells = test: Conversion of sulindac epimers to sulindac sulfide in whole cells, lung cancer; assay type: in vitro ADME; settings: 200 μM epimer, 4 hours, serum-free medium
Experimental: as §2, §3

[4] = system: lung carcinoma cell line designated A549; test: MTS cell viability after pretreatment and oxidative stress, lung cancer cells
Experimental: Cell viability was determined by the [sequence] 96®-Aqueous One Cell Proliferation Assay (Promega) according to the manufacturer's instructions. The assay utilizes a novel tetrazolium compound (3-(4,5-dimethylthiazol-2-yl)-5-(3-carboxymethoxyphenyl)-2-(4-sulfophenyl)-2H-tetrazolium; MTS) and an electron-coupling reagent (phenazine ethosulfate; PES). Metabolically active cells convert the MTS to a water-soluble formazan by the action of cellular dehydrogenases. The amount of formazan produced is measured by absorbance at 490 nm using a colorimetric microtiter plate reader (BIORAD; Model 2550). Absorbance is directly proportional to the number of viable cells.
Experiments using similar methods were performed with a lung carcinoma cell line designated A549. […] Cells were grown in Ham's F12K medium supplemented with final concentrations of 2 mM L-glutamine, 1.6 g/L sodium bicarbonate and 10% fetal bovine serum. Cultures were maintained between 6×10^3-6×10^4 cells/cm^2 in standard tissue culture flasks. The protocol for pretreatment of cells with 500 μM sulindac followed by a two hour exposure to various concentrations of TBHP was the same as that described for the RKO colon cancer cells.
Following a 24 hr pretreatment with 500 μM sulindac, the cells were washed once to remove the excess sulindac before exposure to TBHP for 2 hr.

[5] = system: neonatal rat cardiac myocytes; settings: for Amount Formed (sulindac sulfide): Normal Cardiomyocyte, 200 μM epimer, 4 hours, serum-free medium
Experimental: FIG. 23 is a graph showing the metabolic conversion of the R & S epimers of sulindac to the sulfide form in cardiac myocytes. The amount of sulindac sulfide formed by 10^6 cells incubated with 400 μM sulindac, R, S or RS mixture is measured as a function of time of incubation. […] The absorbance was measured at 330 nm.
To inhibit fibroblast growth, 0.1 mM bromodeoxyuridine was included in the medium for the first 3-5 days after plating. Cell cultures are incubated with sulindac or its individual epimers for specified times.
as §2, §3

SCC skin cancer cells = test: Intracellular ROS by indicator dye fluorescence, SCC skin cancer cells
Experimental: SCC skin cancer cells were plated onto 6-well plates at a cell density of 50-60% confluence. The cultures were pretreated with sulindac (500 uM) for 24 hours followed by the addition of TBHP (100 uM) for two hours. During this period of time, the cell density in the 6-well plates increased to 80-90% confluent.

[6] = system: Normal HEK skin cells (human neonatal epidermal keratinocytes); test: Intracellular ROS by indicator dye fluorescence, normal HEK skin cells; settings: Table 4, alone or after Sul 500 uM
Experimental: Experimental conditions: Normal HEK skin cells plated onto 6-well plates at cell density of 60-70% confluence. Sulindac (0.5 mM)×24 hours (cell density remained about the same) followed by TBHP×2 hours followed by ROS indicator dye (5 μM)×1 hour (Table 1).
Human neonatal epidermal keratinocytes were plated into 6-well plates at a cell density of 60-70% confluence. The cultures were pretreated with sulindac (500 uM) for 34 hours followed by the addition of different concentrations of TBHP for 2 hours. During this period of time, the cell density in the 6-well plates remained the same (there was no increase in cell proliferation). This was followed by the addition of the ROS indicator dye.

[7] = cited from earlier work
[8] = system: precancerous growths and/or BCC's; test: Topical sulindac gel followed by hydrogen peroxide solution in patients; settings: applied alone to the skin condition
[9] = system: WM-266-4 Melanoma skin cell line; test: MTS cell viability after pretreatment and oxidative stress, melanoma cells; assay type: cell-based, human; settings: sulindac sulfide pretreatment
[10] = Table 2, Sul 0.5 mM 24 hours and/or TBHP 100 μM 2 hours
[11] = Table 3, Sul 500 μM 24 hours and/or TBHP 100 μM 2 hours

## CC(=O)Oc1ccccc1C(=O)O [Acetylsalicylic acid]
[1]
  sensitizing skin cancer cells to killing by TBHP: ineffective
[2]
  sensitizing colon cancer cells to killing by TBHP: ineffective

## CC1=C(CC(=O)O)c2cc(F)ccc2/C1=C\c1ccc([S+](C)[O-])cc1 (stereo not shown) [R-epimer, R-sulindac sulfoxide]
Normal lung cells
  R/S (%): 6%
  Amount Formed (sulindac sulfide): 2.2 picomoles
Normal lung cells; listed as R epimer
  R/S (%): < 10%
[3]
  Amount Formed (sulindac sulfide): 35.3 picomoles
HeLa cancer cells
  Amount Formed (sulindac sulfide): 9.3 picomoles
[1]
  cancer killing effect of epimers, SCC cells: comparable in potency to the sulindac racemic mixture
Cancer Lung cells
  Amount Formed (sulindac sulfide): 7.5 picomoles
[4]
  cancer killing effect of epimers, lung cancer cells: comparable in potency to the sulindac racemic mixture
[5]
  Amount Formed (sulindac sulfide): 11.6 picomoles
[5]; normal cardiac myocytes, 400 μM, time course (FIG. 23)
  conversion to the sulfide compared to the S-epimer: greater than 10 fold less conversion

## CC1=C(CC(=O)O)c2cc(F)ccc2/C1=C\c1ccc([S@+](C)[O-])cc1 [S-epimer, S-sulindac sulfoxide]
Normal lung cells
  Amount Formed (sulindac sulfide): 35 picomoles
[3]
  Amount Formed (sulindac sulfide): 57 picomoles
HeLa cancer cells
  Amount Formed (sulindac sulfide): 7.9 picomoles
[1]
  cancer killing effect of epimers, SCC cells: comparable in potency to the sulindac racemic mixture
Cancer Lung cells
  Amount Formed (sulindac sulfide): 17.7 picomoles
[4]
  cancer killing effect of epimers, lung cancer cells: comparable in potency to the sulindac racemic mixture
[5]
  Amount Formed (sulindac sulfide): 120.9 picomoles

## CC(C)(C)OO [TBHP, tert-butyl hydroperoxide]
SCC skin cancer cells; [10]
  % Cells with ROS Uptake by Fluorescence: 11%
  fold increase compared to untreated control: 7 fold
SCC skin cancer cells; [11]
  % Cells containing ROS: 11%
  fold increase compared to untreated control: 7 fold
SCC skin cancer cells; sulindac 500 uM or TBHP 100 uM alone
  ROS levels in SCC skin cancer cells, agent alone: enhanced the ROS levels
[6]; TBHP 200 uM 2 hours
  % Cells containing ROS: 2%
  fold increase compared to untreated control: 0 fold
[6]; TBHP 400 uM 2 hours
  % Cells containing ROS: 5%
  fold increase compared to untreated control: 2 fold
[6]; TBHP 800 uM 2 hours
  % Cells containing ROS: 60%
  fold increase compared to untreated control: 20 fold
[4]; 1.5-2.0 mM TBHP, 2 hr, untreated (no sulindac) cells
  viable cells without sulindac pretreatment: approximately 50%

## O=C(O)Cc1ccccc1Nc1c(Cl)cccc1Cl [diclofenac sodium]
[1]
  sensitizing skin cancer cells to killing by TBHP: ineffective
[2]
  sensitizing colon cancer cells to killing by TBHP: ineffective

## OO [hydrogen peroxide]
[7]; 3-8% hydrogen peroxide, 24 hours under occlusive dressing, intact and abraded skin, rabbits
  skin irritation: nonirritating
[7]; 10% hydrogen peroxide, 4 hour exposure
  skin irritation: slight
[7]; 35% hydrogen peroxide
  skin irritation: mild
[7]; hydrogen peroxide solutions of 35% or less, rabbits
  classification as skin irritant by the European Union criteria: would not be classified as skin irritants
[8]
  effect on the precancerous or cancerous growth when applied alone: no effect

## CC(C)Cc1ccc(C(C)C(=O)O)cc1 (stereo not shown) [ibuprofen]
[1]
  sensitizing skin cancer cells to killing by TBHP: ineffective
[2]
  sensitizing colon cancer cells to killing by TBHP: ineffective

## CSc1ccc(/C=C2/C(C)=C(CC(=O)O)c3cc(F)ccc32)cc1 [sulindac sulfide]
[9]
  reducing the cell viability of melanoma cells exposed to TBHP: had activity in reducing the cell viability
[1]
  enhancing the killing of skin cancer cells (SCC-25) when exposed to TBHP: not effective
[4]; 250 μM sulindac sulfide 24 hr, TBHP 2 hr (FIG. 15)
  reducing the cell viability of lung cancer cells exposed to TBHP: had activity in reducing the cell viability

## CC1=C(CC(=O)O)c2cc(F)ccc2/C1=C\c1ccc(S(C)(=O)=O)cc1 [sulindac sulfone]
[1]
  enhancing the killing of skin cancer cells (SCC-25) when exposed to TBHP: effective in enhancing the killing
[4]; FIG. 15, 500 μM sulindac, 250 μM sulindac sulfone
  killing effect in all cancer cell studies: most potent killing effect

## sulindac methionine sulfoxide [SMO]
[1]
  enhancing the killing of skin cancer cells (SCC-25) when exposed to TBHP: not effective
